According to US20210002231A1 (Centre National de la Recherche Scientifique, priority 2018, published 2021):
Like-named read-outs stand apart in the source and are kept apart here. Residues, ends and D or L forms follow the SMILES beside them.

What was measured:
[1] = target: T1, human KOPr (Homo sapiens, UniProt P41145); assay: Glo-sensor cAMP assay; type: cell-based
T1 construct: expressed in transfected cells; HEK293-Glo20F cells (cAMP)
Method: (§1) Stimulation by endogenous RF-amide peptides or test compounds for [^35S]-GTPγS binding to membranes from CHO cells expressing human NPFF1R or NPFF2R, were examined as reported. 1.6. Glo-Sensor cAMP Assay cAMP accumulation assay was essentially done as described with the following modifications: HEK293 cells stably expressing cAMP Glosensor-20F were used, with or without additional stable expression of each individual opioid receptor or NPFF1R. The cAMP responses were measured in presence of D-luciferin (1 mM).

[2] = target: T2, GPR10 (Homo sapiens, UniProt P49683); assay: Radioligand competition binding with [3H]-PrRP-20
T2 construct: expressed in transfected cells; host or cells: CHO cells (gift from M. Parmentier, IRIBHM, Brussels), membranes
T2 sequence (P49683 1-370): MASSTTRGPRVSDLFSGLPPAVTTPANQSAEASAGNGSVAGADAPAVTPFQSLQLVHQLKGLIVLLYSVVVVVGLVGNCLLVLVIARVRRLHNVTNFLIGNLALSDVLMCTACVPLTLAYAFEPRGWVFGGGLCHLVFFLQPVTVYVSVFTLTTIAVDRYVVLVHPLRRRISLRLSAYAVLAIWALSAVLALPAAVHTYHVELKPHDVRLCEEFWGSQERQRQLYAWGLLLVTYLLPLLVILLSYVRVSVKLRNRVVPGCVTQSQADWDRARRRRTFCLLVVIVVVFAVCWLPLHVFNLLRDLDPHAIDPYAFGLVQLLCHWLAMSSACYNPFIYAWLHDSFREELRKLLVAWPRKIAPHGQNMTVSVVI

[3] = system: C57BL/6N mice; assay: Hyperalgesia and analgesic tolerance upon chronic sc. treatment, tail immersion test; type: in vivo; conditions: for antinociceptive effect on day 1: equianalgesic sc. doses, 25 s cut-off; for basal thermal nociceptive threshold (development of hyperalgesia): chronic daily sc., compared with saline
Method: Animal experiments were performed on adult male C57BL/6N male mice (25-30 g weight; Janvier labs, France). Animals were housed in groups of three to five per cage and kept under a 12 h/12 h light/dark cycle at 21±1° C. with ad libitum access to food and water. Experiments were performed during the light-on phase of the cycle. Mice were habituated to the testing room and equipment before starting behavioral experiments. Control and treated group assignment as well as pain response measurements were performed in a blinded manner. Every animal was used only once. 1.11. Drug administration All drugs were dissolved in physiological saline (0.9%) and administered subcutaneously (sc.) at 10 mL/kg (volume/body weight). […] Assessment of thermal nociception The nociceptive sensitivity to thermal stimulation was determined in mice using the warm-water tail immersion tests as previously described [12; 49]. In the tail immersion test, C57BN/6N mice were restrained in a grid pocket and their tail was immersed in a thermostated water bath. The latency (in sec) for tail withdrawal from hot water (47.5±0.5° C.) was taken as a measure of the nociceptive response. In the absence of any nociceptive reaction, a cut-off value of 25 sec was set to avoid tissue damage. Experiments for chronic drug effects were designed according to a protocol enabling the evaluation of time-course of opioid-induced hyperalgesia and development of analgesic tolerance using the tail immersion test. […] For analgesic tolerance evaluation, nociceptive latencies were measured on day 1 and 8 according to the acute effect protocol. For the assessment of hyperalgesia, basal nociceptive latencies were measured every day, 30 min before drug or saline injection. Responses are expressed as latency times (in sec) of tail withdrawal from the hot water.

[4] = system: C57BL/6N mice; assay: Respiratory depression by whole body plethysmography; type: in vivo; conditions: acute sc.; KGOP01 1.8, KGFF03 1.2, KGFF09 7.4 μmol/kg; 100 min
Method: Ventilatory parameters were recorded in conscious C57BL/6N mice by whole body barometric plethysmography (Emka Technologies, Paris, France). Mice were acclimatized with the plethysmograph chamber for 30 min until a stable baseline was obtained. Then, the animal was gently removed from the chamber for sc. injection of the tested drug at TO and replaced in the chamber for the remaining measurements. Respiratory frequency (f) was recorded for 100 min and used as the index of respiratory depression.

[5] = system: C57BL/6N mice; assay: CFA-induced inflammatory pain model; type: in vivo; conditions: for CFA-induced thermal hypersensitivity (basal threshold): daily sc., measured before injection
Method: Tail inflammation in C57BL/6N mice was induced by injecting subcutaneously 20 μl of a Complete Freund's Adjuvant (CFA) solution or saline (control mice) 3 cm from the tip of the tail. Twenty-four hours after CFA injection (day 1), inflammation was confirmed by measuring thermal and mechanical hyperalgesia. Mice were then treated sc. daily for 7 days (from day 1 to day 7) with the test compounds or saline (control). Nociceptive threshold to heat stimulation was measured by tail immersion test (47.5±0.5° C.) and tail pressure test each hour for 5 h after the first drug administration in order to determine the peak of the anti-hyperalgesic response. During the following days, basal nociceptive thresholds were evaluated before injection and 2 h after drug injection. Antinociceptive response was calculated as percent of Maximum Possible Effect (% MPE) according to the formula=[(test latency−CFA/saline mice latency)/(cut-off time−CFA/saline mice latency)]×100. In order to limit behavioral sensitization, thermal nociception was evaluated on days 1-2-4-6 and mechanical nociception on days 1-3-5-7.

[6] = target: NPFF2R (Homo sapiens, UniProt Q9Y5X5); assay: [35S]-GTPγS binding assay; type: biochemical; set-up: expressed in transfected cells;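 as to Emax: Emax relative to NPFF as 100%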
NPFF2R, sequence (Q9Y5X5 whole entry): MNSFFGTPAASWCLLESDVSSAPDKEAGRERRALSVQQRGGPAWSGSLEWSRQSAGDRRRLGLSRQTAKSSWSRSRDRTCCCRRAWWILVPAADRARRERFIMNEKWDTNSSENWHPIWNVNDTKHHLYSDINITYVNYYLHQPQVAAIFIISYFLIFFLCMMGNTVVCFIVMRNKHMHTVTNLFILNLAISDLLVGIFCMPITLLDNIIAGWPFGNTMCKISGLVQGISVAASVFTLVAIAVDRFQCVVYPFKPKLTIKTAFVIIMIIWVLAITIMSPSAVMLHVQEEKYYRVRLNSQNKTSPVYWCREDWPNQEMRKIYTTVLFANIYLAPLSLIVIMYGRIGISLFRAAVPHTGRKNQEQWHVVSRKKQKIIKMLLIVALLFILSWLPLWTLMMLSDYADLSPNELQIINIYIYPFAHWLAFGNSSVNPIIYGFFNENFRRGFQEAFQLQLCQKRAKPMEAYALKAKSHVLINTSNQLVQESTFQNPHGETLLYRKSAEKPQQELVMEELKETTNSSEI
Method: as §1

[7] = target: human NPFF1R (Homo sapiens, UniProt Q9GZQ6); assay: [35S]-GTPγS binding assay; type: biochemical; set-up: expressed in transfected cells; conditions: for Emax: relative to RFRP3
human NPFF1R, sequence (Q9GZQ6 whole entry): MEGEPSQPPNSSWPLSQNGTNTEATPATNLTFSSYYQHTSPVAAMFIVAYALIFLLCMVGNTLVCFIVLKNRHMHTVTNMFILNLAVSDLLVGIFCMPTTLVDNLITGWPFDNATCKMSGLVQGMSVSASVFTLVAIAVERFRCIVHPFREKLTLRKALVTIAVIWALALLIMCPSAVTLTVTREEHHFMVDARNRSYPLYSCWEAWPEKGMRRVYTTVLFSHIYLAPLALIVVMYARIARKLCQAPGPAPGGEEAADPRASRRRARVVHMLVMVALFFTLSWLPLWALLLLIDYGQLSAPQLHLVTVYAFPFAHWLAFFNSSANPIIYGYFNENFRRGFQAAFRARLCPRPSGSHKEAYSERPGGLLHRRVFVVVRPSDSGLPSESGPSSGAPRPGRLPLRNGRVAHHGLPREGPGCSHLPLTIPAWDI
Method: as §1

[8] = target: T3, human MOPr (Homo sapiens, UniProt P35372); assay: Radioligand competition binding with [3H]-diprenorphine; set-up: expressed in transfected cells; HEK293-Glo20F cells (cAMP)
T3 sequence (P35372 whole entry): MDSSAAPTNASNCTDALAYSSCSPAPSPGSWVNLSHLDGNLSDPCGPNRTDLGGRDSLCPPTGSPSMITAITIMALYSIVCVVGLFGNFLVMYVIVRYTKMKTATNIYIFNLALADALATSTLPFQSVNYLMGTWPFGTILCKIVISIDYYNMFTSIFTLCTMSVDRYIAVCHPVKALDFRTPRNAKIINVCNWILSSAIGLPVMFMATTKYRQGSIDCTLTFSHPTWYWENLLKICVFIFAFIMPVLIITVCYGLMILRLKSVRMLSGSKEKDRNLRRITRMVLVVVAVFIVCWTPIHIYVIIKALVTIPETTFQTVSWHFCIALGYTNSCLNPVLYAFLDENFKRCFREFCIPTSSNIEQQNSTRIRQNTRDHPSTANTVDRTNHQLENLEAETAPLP

[9] = target: T3, human MOPr; assay: cell-based; type: cell-based; set-up: expressed in transfected cells; HEK293-Glo20F cells (cAMP); conditions: for MOPr-induced G protein activation: in words; for Emax: read-out: MOPr (cAMP) Emax
In short: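 GTPγS binding used membranes of CHO cells expressing NPFF1R or NPFF2R, stimulated by RF-amide peptides or test compounds. cAMP was measured in HEK293 cells stably carrying Glosensor-20F, with or without stable expression of an opioid receptor or NPFF1R, in the presence of 1 mM D-luciferin.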

[10] = Table 3a, HEK293-Glo20F-hMOPr cells, read-out: MOPr (cAMP) EC50
[11] = [3H]-PrRP-20, read-out: Ki ± SEM GPR10
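For MOPr (cAMP) Emax in this document: Emax relative to DAMGO as 100%.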

T1 sequence (P41145 whole entry): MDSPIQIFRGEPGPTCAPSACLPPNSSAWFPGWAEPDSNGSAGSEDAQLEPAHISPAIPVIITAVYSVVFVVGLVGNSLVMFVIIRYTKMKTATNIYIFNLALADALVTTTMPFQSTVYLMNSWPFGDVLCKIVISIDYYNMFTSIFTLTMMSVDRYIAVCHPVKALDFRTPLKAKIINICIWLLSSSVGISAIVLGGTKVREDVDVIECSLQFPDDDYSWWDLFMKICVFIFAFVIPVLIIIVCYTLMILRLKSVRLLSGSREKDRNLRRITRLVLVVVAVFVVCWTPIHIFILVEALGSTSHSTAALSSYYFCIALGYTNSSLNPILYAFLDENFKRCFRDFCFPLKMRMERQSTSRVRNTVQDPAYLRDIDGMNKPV

Row | Compound | Emax [1] [%] | antinociceptive effect on day 1 [3] | respiratory depression (respiratory frequency) compared to saline [4] | CFA-induced thermal hypersensitivity (basal threshold) [5] | Emax [6] [%] | Emax [7] [%] | Ki [8] [µM] | EC50 [9, 10] [µM] | MOPr-induced G protein activation [9] | Emax [9] [%] | Ki [2, 11] [µM] | basal thermal nociceptive threshold (development of hyperalgesia) [3] | also measured
1 | Cc1cc(O)cc(C)c1C[C@H](N)C(=O)N[C@H](CCCNC(=N)N)C(=O)N[C@H]1Cc2ccccc2CN(CCC(=O)N[C@@H](CCCNC(=N)N)C(=O)N[C@@H](Cc2ccccc2)C(N)=O)C1=O [KGFF03, H-Dmt-D-Arg-Aba-β-Ala-Arg-Phe-NH2] (HELM PEPTIDE1{[Cc1cc(O)cc(C)c1C[C@H](N)C(=O)[*:2]].[dR].[O=C1[C@@H](N[*:1])Cc2ccccc2CN1CCC(=O)[*:2]].R.F.[am]}$$$$V2.0) | 34 ± 11 | full antinociception | did not | not the case | 111 ± 17 | 88 ± 7 | 0.00024 ± 3e-05 | 0.012 ± 0.002 | highly potent and fully efficacious | 92 ± 1 |  |  | EC50 [1]: 0.095 µM; Ki [2]: > 10 µM
2 | Cc1cc(O)cc(C)c1C[C@H](N)C(=O)N[C@H](CCCNC(=N)N)C(=O)N[C@H]1Cc2ccccc2CN(CCC(=O)N[C@@H](CCCN2CCC(Cc3ccccc3)CC2)C(=O)N[C@@H](Cc2ccccc2)C(N)=O)C1=O [KGFF09, H-Dmt-D-Arg-Aba-β-Ala-Bpa-Phe-NH2] | 15 ± 1 | full antinociception | did not | totally reversed after the third injection | 38 ± 14 | 10 ± 2 | 0.00243 ± 0.00018 | 0.0182 ± 0.0061 | highly potent and fully efficacious | 85 ± 2 | > 10 | absent | decrease in antinociception efficacy (AUC) on day 8 compared to day 1 ([3]; daily sc. d1-d8, KGOP01 1.8, KGFF03 1.2, KGFF09 7.4 μmol/kg/d): less than 25%; analgesic tolerance after 7 days of chronic administration ([5]; in words): significantly less tolerance; EC50 ([9]; Table 3B, read-out: MOPr (cAMP) EC50): 0.0182 ± 0.0061 µM
3 | Cc1cc(O)cc(C)c1C[C@H](N)C(=O)N[C@H](CCCNC(=N)N)C(=O)N[C@H]1Cc2ccccc2CN(CCC(N)=O)C1=O [KGOP01, reference compound] | 18 ± 1 | full antinociception | significant respiratory depression | not the case |  |  | 0.00012 ± 2e-05 |  |  | 89 ± 2 | > 10 | significant and progressive decrease | EC50 ([1]; read-out: KOPr (cAMP) EC50): > 10 µM; EC50 ([6]; membranes from CHO-hNPFF2R cells, read-out: NPFF2R (GTPγS) EC50): > 10 µM; EC50 ([7]; membranes from CHO-hNPFF1R cells, read-out: NPFF1R (GTPγS) EC50): > 10 µM; EC50 ([9]; MOPr (cAMP) EC50): 0.000204 ± 5e-05 µM
